Test results from ChEMBL document CHEMBL4507258 (2021).

Columns and labels:
[1] = biological target: Calcium/calmodulin-dependent protein kinase type 1G (Homo sapiens) (UniProt Q96NX5); settings: Compound concentration 1000.0 nM
[2] = biological target: Protein-tyrosine kinase 6 (Homo sapiens) (UniProt Q13882); settings: Compound concentration 1000.0 nM
[3] = biological target: Ribosomal protein S6 kinase alpha-5 (Homo sapiens) (UniProt O75582); settings: Compound concentration 1000.0 nM
[4] = biological target: Inhibitor of nuclear factor kappa-B kinase subunit alpha (Homo sapiens) (UniProt O15111); settings: Compound concentration 1000.0 nM
Sequence of Inhibitor of nuclear factor kappa-B kinase subunit alpha (Homo sapiens) (O15111 whole entry): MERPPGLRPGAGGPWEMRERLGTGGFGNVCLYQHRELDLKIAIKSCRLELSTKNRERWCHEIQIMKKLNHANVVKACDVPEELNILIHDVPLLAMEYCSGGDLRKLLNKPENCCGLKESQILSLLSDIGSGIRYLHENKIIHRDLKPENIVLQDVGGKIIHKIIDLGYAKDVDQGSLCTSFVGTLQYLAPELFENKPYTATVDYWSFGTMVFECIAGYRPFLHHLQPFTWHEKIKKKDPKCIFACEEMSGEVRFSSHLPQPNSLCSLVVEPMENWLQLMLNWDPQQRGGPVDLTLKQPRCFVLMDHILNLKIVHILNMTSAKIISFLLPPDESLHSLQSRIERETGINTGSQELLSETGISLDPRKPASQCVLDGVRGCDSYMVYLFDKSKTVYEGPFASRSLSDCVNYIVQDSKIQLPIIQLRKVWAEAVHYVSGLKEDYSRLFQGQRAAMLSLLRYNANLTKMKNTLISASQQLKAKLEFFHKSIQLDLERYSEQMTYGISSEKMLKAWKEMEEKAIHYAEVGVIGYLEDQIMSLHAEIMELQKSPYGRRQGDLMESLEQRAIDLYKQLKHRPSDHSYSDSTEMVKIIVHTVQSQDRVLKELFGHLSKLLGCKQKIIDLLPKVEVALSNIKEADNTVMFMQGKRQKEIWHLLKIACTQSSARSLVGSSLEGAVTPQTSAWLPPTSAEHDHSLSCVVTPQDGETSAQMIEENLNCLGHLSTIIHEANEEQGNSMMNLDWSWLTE

[5] = biological target: 5-hydroxytryptamine receptor 2A (Homo sapiens) (UniProt P28223); settings: Compound concentration 10.0 uM
[6] = biological target: Tyrosine-protein kinase Mer (Homo sapiens) (UniProt Q12866); settings: Compound concentration 1000.0 nM
[7] = biological target: Tyrosine-protein kinase receptor UFO (Homo sapiens) (UniProt P30530); settings: Compound concentration 1000.0 nM
[8] = biological target: Receptor-interacting serine/threonine-protein kinase 1 (Homo sapiens) (UniProt Q13546); settings: Compound concentration 1000.0 nM
[9] = biological target: D(3) dopamine receptor (Homo sapiens) (UniProt P35462); settings: Compound concentration 10.0 uM
Sequence of D(3) dopamine receptor (Homo sapiens) (P35462 whole entry, canonical isoform): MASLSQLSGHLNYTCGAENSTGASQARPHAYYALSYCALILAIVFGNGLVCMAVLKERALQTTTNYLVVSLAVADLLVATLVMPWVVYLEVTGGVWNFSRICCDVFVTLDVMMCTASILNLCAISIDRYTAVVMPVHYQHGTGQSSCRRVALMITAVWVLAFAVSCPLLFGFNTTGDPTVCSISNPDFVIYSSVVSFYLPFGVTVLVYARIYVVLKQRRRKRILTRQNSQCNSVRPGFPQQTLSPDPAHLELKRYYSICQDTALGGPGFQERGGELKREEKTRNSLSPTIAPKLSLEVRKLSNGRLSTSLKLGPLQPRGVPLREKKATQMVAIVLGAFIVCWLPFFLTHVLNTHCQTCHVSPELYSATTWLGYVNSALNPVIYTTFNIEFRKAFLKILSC

[10] = biological target: Casein kinase I isoform gamma-2 (Homo sapiens) (UniProt P78368); settings: Compound concentration 1000.0 nM
Sequence of Casein kinase I isoform gamma-2 (Homo sapiens) (P78368 whole entry, looked up, canonical isoform): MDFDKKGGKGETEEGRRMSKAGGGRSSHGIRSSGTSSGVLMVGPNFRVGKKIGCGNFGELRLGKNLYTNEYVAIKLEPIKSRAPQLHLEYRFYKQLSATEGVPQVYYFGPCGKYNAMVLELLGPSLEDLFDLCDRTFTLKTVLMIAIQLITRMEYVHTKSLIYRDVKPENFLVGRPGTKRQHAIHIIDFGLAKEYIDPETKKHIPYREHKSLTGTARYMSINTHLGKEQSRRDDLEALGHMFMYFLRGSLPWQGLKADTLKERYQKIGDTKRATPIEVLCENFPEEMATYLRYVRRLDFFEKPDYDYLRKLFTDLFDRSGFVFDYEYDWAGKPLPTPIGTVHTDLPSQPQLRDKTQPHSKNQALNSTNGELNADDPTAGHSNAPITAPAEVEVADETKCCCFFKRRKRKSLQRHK

[11] = biological target: Mitogen-activated protein kinase kinase kinase 3 (Homo sapiens) (UniProt Q99759); settings: Compound concentration 1000.0 nM
[12] = biological target: Wee1-like protein kinase (Homo sapiens) (UniProt P30291); settings: Compound concentration 1000.0 nM
[13] = biological target: Mitogen-activated protein kinase kinase kinase 5 (Homo sapiens) (UniProt Q99683); settings: Compound concentration 1000.0 nM
[14] = biological target: Citron Rho-interacting kinase (Homo sapiens) (UniProt O14578); settings: Compound concentration 1000.0 nM
[15] = biological target: Epidermal growth factor receptor (Homo sapiens) (UniProt P00533); settings: Compound concentration 1000.0 nM
[16] = biological target: Interleukin-1 receptor-associated kinase 4 (Homo sapiens) (UniProt Q9NWZ3); settings: Compound concentration 1000.0 nM
[17] = tested on: Proto-oncogene tyrosine-protein kinase receptor Ret (Homo sapiens), P07949 [M918T]; settings: Compound concentration 1000.0 nM
[18] = biological target: Megakaryocyte-associated tyrosine-protein kinase (Homo sapiens) (UniProt P42679); settings: Compound concentration 1000.0 nM
[19] = biological target: G protein-coupled receptor kinase 4 (Homo sapiens) (UniProt P32298); settings: Compound concentration 1000.0 nM
[20] = biological target: Serine/threonine-protein kinase SBK1 (Homo sapiens) (UniProt Q52WX2); settings: Compound concentration 1000.0 nM
[21] = biological target: Tyrosine-protein kinase ITK/TSK (Homo sapiens) (UniProt Q08881); settings: Compound concentration 1000.0 nM
[22] = biological target: Serine/threonine-protein kinase Sgk3 (Homo sapiens) (UniProt Q96BR1); settings: Compound concentration 1000.0 nM
[23] = biological target: Mitogen-activated protein kinase kinase kinase kinase 5 (Homo sapiens) (UniProt Q9Y4K4); settings: Compound concentration 1000.0 nM
[24] = tested on: Tyrosine-protein kinase ABL1 (Homo sapiens), P00519 [E255K]; settings: Compound concentration 1000.0 nM
[25] = biological target: Mast/stem cell growth factor receptor Kit (Homo sapiens) (UniProt P10721); settings: Compound concentration 1000.0 nM
[26] = biological target: Ribosomal protein S6 kinase beta-1 (Homo sapiens) (UniProt P23443); settings: Compound concentration 1000.0 nM
[27] = biological target: Serine/threonine-protein kinase Nek9 (Homo sapiens) (UniProt Q8TD19); settings: Compound concentration 1000.0 nM
[28] = biological target: Calcium/calmodulin-dependent protein kinase type 1B (Homo sapiens, UniProt Q6P2M8); settings: Compound concentration 1000.0 nM
[29] = biological target: Cyclin-dependent kinase 16 (Homo sapiens) (UniProt Q00536); settings: Compound concentration 1000.0 nM
[30] = biological target: Vascular endothelial growth factor receptor 1 (Homo sapiens) (UniProt P17948); settings: Compound concentration 1000.0 nM
[31] = biological target: MAP/microtubule affinity-regulating kinase 4 (Homo sapiens) (UniProt Q96L34); settings: Compound concentration 1000.0 nM
Sequence of MAP/microtubule affinity-regulating kinase 4 (Homo sapiens) (Q96L34 whole entry): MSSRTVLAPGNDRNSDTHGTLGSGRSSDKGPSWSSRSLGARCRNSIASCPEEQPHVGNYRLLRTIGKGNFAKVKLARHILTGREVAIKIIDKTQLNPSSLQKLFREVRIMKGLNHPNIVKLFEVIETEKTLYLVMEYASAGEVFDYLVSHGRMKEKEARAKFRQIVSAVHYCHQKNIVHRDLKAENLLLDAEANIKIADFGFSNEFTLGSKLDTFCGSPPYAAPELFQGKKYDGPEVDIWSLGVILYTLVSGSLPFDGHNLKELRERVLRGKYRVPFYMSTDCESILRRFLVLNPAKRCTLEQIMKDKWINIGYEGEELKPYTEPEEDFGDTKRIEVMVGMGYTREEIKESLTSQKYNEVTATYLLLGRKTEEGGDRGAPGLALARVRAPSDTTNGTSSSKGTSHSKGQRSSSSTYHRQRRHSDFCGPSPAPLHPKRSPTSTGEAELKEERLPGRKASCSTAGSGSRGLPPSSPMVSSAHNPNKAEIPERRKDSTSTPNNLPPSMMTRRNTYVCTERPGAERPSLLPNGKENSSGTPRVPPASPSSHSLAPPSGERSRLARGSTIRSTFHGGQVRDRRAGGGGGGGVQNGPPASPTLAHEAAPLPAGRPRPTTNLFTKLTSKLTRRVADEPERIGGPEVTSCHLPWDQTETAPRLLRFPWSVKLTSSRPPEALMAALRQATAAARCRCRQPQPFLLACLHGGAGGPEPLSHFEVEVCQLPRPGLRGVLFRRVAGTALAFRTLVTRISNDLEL

[32] = tested on: Tyrosine-protein kinase ABL1 (Homo sapiens), P00519 [F317I]; settings: Compound concentration 1000.0 nM
[33] = biological target: Mitogen-activated protein kinase 9 (Homo sapiens) (UniProt P45984); settings: Compound concentration 1000.0 nM
[34] = biological target: Fibroblast growth factor receptor 3 (Homo sapiens) (UniProt P22607); settings: Compound concentration 1000.0 nM
[35] = biological target: Serine/threonine-protein kinase D2 (Homo sapiens) (UniProt Q9BZL6); settings: Compound concentration 1000.0 nM
[36] = biological target: Myosin light chain kinase 2, skeletal/cardiac muscle (Homo sapiens) (UniProt Q9H1R3); settings: Compound concentration 1000.0 nM
[37] = biological target: Serine/threonine-protein kinase tousled-like 2 (Homo sapiens) (UniProt Q86UE8); settings: Compound concentration 1000.0 nM
Sequence of Serine/threonine-protein kinase tousled-like 2 (Homo sapiens) (Q86UE8 whole entry, looked up): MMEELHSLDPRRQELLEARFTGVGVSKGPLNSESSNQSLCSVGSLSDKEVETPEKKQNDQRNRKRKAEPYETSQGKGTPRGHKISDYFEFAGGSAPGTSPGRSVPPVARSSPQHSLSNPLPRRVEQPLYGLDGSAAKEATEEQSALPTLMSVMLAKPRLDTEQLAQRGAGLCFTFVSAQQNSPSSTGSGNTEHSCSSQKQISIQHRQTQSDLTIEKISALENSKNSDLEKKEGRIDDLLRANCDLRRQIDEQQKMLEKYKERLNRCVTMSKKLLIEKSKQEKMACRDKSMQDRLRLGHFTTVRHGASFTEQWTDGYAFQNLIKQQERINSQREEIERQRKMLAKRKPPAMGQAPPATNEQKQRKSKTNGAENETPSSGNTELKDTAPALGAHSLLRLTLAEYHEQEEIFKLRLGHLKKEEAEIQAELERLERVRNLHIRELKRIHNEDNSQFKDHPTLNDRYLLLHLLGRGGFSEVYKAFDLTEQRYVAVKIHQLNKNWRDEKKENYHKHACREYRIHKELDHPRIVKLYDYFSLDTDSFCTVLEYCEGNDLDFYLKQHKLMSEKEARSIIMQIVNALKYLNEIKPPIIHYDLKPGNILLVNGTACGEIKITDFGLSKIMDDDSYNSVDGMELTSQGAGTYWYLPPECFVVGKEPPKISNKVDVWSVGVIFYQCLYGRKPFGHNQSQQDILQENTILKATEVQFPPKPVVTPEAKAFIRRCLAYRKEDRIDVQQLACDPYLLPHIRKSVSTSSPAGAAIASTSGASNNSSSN

[38] = biological target: Ephrin type-B receptor 6 (Homo sapiens) (UniProt O15197); settings: Compound concentration 1000.0 nM
[39] = biological target: Serine/threonine-protein kinase PLK4 (Homo sapiens) (UniProt O00444); settings: Compound concentration 1000.0 nM
[40] = tested on: Receptor-type tyrosine-protein kinase FLT3 (Homo sapiens), P36888 [UNDEFINED MUTATION]; settings: Compound concentration 1000.0 nM
Sequence of Receptor-type tyrosine-protein kinase FLT3 (Homo sapiens), P36888 [UNDEFINED MUTATION] (P36888 whole entry, looked up, change not shown): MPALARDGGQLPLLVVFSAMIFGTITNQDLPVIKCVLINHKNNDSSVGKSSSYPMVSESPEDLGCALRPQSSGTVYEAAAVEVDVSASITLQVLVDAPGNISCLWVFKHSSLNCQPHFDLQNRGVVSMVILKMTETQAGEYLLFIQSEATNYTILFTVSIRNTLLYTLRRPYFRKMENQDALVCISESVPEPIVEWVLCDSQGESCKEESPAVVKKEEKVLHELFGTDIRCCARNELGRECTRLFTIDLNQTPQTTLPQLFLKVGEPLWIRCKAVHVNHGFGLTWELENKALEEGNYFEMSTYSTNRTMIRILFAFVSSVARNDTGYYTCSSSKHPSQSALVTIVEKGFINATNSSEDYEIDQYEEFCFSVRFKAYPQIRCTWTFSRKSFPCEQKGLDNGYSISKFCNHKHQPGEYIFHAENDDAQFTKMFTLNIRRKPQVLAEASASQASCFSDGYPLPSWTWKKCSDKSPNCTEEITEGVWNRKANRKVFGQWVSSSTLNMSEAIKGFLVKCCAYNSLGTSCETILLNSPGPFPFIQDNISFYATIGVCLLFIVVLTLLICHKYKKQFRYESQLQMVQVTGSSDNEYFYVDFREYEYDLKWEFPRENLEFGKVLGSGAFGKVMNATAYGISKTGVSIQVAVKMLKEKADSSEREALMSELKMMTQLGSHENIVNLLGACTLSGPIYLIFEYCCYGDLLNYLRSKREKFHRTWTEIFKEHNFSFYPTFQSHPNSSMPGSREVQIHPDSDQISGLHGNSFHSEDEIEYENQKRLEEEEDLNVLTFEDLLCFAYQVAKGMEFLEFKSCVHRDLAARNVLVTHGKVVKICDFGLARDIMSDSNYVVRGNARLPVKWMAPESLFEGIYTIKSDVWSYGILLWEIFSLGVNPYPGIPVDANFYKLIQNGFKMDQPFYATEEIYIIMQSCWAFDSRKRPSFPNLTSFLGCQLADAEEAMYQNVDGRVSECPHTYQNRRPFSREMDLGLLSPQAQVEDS

[41] = biological target: Tyrosine-protein kinase ZAP-70 (Homo sapiens) (UniProt P43403); settings: Compound concentration 1000.0 nM
[42] = biological target: Serine/threonine-protein kinase ULK1 (Homo sapiens) (UniProt O75385); settings: Compound concentration 1000.0 nM
[43] = biological target: Receptor-type tyrosine-protein kinase FLT3 (Homo sapiens) (UniProt P36888); settings: Compound concentration 1000.0 nM
Sequence of Receptor-type tyrosine-protein kinase FLT3 (Homo sapiens) (P36888 whole entry): as the sequence (P36888 whole entry, looked up, change not shown) above

[44] = biological target: Mitogen-activated protein kinase 11 (Homo sapiens) (UniProt Q15759); settings: Compound concentration 1000.0 nM
[45] = biological target: Tyrosine-protein kinase JAK1 (Homo sapiens) (UniProt P23458); settings: Compound concentration 1000.0 nM

CCCCN(CCCC)C(=O)CN1C[C@@H](c2cc(OC)c3c(c2)OCO3)[C@H](C(=O)O)[C@H]1CC(C)(C)CCC [A-545]
inactive: residual activity [1] 100% | residual activity [2] 100% | residual activity [3] 74.4% | residual activity [4] 100% | inhibition [5] 7.84% | residual activity [6] 100% | residual activity [7] 87.2% | residual activity [8] 100% | inhibition [9] 16.6% | residual activity [10] 96.3% | residual activity [11] 100% | residual activity [12] 84.8% | residual activity [13] 100% | residual activity [14] 90.5% | residual activity [15] 100% | residual activity [16] 94.5% | residual activity [17] 100% | residual activity [18] 100% | residual activity [19] 95.8% | residual activity [20] 90.6% | residual activity [21] 100% | residual activity [22] 100% | residual activity [23] 100% | residual activity [24] 93.5% | residual activity [25] 94.9% | residual activity [26] 99% | residual activity [27] 84.2% | residual activity [28] 100% | residual activity [29] 100% | residual activity [30] 100% | residual activity [31] 93% | residual activity [32] 100% | residual activity [33] 100% | residual activity [34] 88.5% | residual activity [35] 90.6% | residual activity [36] 100% | residual activity [37] 100% | residual activity [38] 87.7% | residual activity [39] 84.1% | residual activity [40] 99.1% | residual activity [41] 98.5% | residual activity [42] 89.2% | residual activity [43] 97.4% | residual activity [44] 99.2% | residual activity [45] 79%

CCCCN(CCCC)C(=O)CN1C[C@H](c2cc(OC)c3c(c2)OCO3)[C@@H](C(=O)O)[C@@H]1CC(C)(C)CCC [ABT-546]
inactive: residual activity [1] 100% | residual activity [2] 100% | residual activity [3] 100% | residual activity [4] 56.2% | inhibition [5] 8.83% | residual activity [6] 100% | residual activity [7] 100% | residual activity [8] 100% | inhibition [9] 17.3% | residual activity [10] 100% | residual activity [11] 94.3% | residual activity [12] 95.4% | residual activity [13] 100% | residual activity [14] 100% | residual activity [15] 95.1% | residual activity [16] 67.5% | residual activity [17] 100% | residual activity [18] 62.8% | residual activity [19] 100% | residual activity [20] 76.5% | residual activity [21] 100% | residual activity [22] 75.7% | residual activity [23] 100% | residual activity [24] 83.7% | residual activity [25] 92.3% | residual activity [26] 92.8% | residual activity [27] 100% | residual activity [28] 86.5% | residual activity [29] 74.8% | residual activity [30] 100% | residual activity [31] 98.3% | residual activity [32] 98.5% | residual activity [33] 100% | residual activity [34] 100% | residual activity [35] 100% | residual activity [36] 100% | residual activity [37] 100% | residual activity [38] 100% | residual activity [39] 100% | residual activity [40] 90.6% | residual activity [41] 70.1% | residual activity [42] 79.4% | residual activity [43] 76% | residual activity [44] 94.2% | residual activity [45] 98%
